Measured values from patent publication EP0726760B1, “SELF-EMULSIBLE FORMULATION FORMING AN OIL-IN-WATER EMULSION” (YISSUM RESEARCH DEVELOPMENT COMPANY OF THE HEBREW …, priority 1993, dated 1995).
Read-outs that look alike come from different tables or passages of the source.

Test: Acute toxicity after intraperitoneal injection, 30 days
Parameters: species or system souris BALB/c
Conditions: mouse, in vivo, ip, printed 1:10 (0.5), i.p., read-out: % de survivants après 30 jours
Procedure: La toxicité aiguë des formulations décrites dans les exemples II - IV, a été examinée sur des souris BALB/c pendant 30 jours. 0.5 ml de chacun des SEOF dilué au 10ème (plus que 300 fois constitue un surdosage) et au 100ème (plus que 30 fois constitue un surdosage) ont été injectés intrapéritonalement au groupe de 4-6 souris. L'état de l'animal a été surveillé pendant plusieurs heures après le processus et ensuite chaque jour, pandant un mois.

OCc1ccccc1 [BA, alcool benzylique]
survival at 720 h (BA 1.5 % in water for injection): 100%
survival at 720 h (BA 3 % in water for injection): 15%
